Assay results published in the CheMixHub ionic liquid set.

Test: xn = mol fraction of the nth substance listed

CCCCn1n[n+](CC)c2ccccc21.F[P-](F)(F)(F)(F)F + c1c[nH]cn1
101.3 kPa, x2 = 0.6993
Settings	electrical conductivity [S/m]	viscosity [mPa·s]
343 K	1.1	11
353 K	1.4	7.7
363 K	1.8	5.6
373 K	2.2	5.2
383.1 K	2.9	4.2
393.1 K	3.2	3.6
403.1 K	3.8	3.1

CC[NH3+].O=[N+]([O-])[O-] + O=[N+]([O-])[O-].O=[N+]([O-])[O-].[Ca+2] + O
100 kPa
Settings	electrical conductivity [S/m]	viscosity [mPa·s]
223 K, x2 = 0.05128, x3 = 0.1778	0.001	–
233 K, x2 = 0.05128, x3 = 0.1778	0.009	–
233 K, x2 = 0.09755, x3 = 0.3019	0.009	–
243 K, x2 = 0.05128, x3 = 0.1778	0.034	–
243 K, x2 = 0.09755, x3 = 0.3019	0.034	–
253 K, x2 = 0.05128, x3 = 0.1778	0.095	–
253 K, x2 = 0.09755, x3 = 0.3019	0.095	–
263 K, x2 = 0.05128, x3 = 0.1778	0.209	–
263 K, x2 = 0.09755, x3 = 0.3019	0.209	–
273 K, x2 = 0.05128, x3 = 0.1778	0.394	–
273 K, x2 = 0.09755, x3 = 0.3019	0.394	–
283 K, x2 = 0.05128, x3 = 0.1778	0.662	–
283 K, x2 = 0.09755, x3 = 0.3019	0.662	–
288.15 K, x2 = 0.05128, x3 = 0.1778	–	131.6
288.15 K, x2 = 0.09755, x3 = 0.3019	–	160.5
293 K, x2 = 0.05128, x3 = 0.1778	1.02	–
293 K, x2 = 0.09755, x3 = 0.3019	1.02	–
293.15 K, x2 = 0.05128, x3 = 0.1778	–	106.7
293.15 K, x2 = 0.09755, x3 = 0.3019	–	127.9
298.15 K, x2 = 0.05128, x3 = 0.1778	–	87.1
298.15 K, x2 = 0.09755, x3 = 0.3019	–	102.8
303 K, x2 = 0.05128, x3 = 0.1778	1.47	–
303 K, x2 = 0.09755, x3 = 0.3019	1.47	–
303.15 K, x2 = 0.05128, x3 = 0.1778	–	71.6
303.15 K, x2 = 0.09755, x3 = 0.3019	–	83.2
308.15 K, x2 = 0.05128, x3 = 0.1778	–	59.2
308.15 K, x2 = 0.09755, x3 = 0.3019	–	67.8
313 K, x2 = 0.05128, x3 = 0.1778	2.01	–
313 K, x2 = 0.09755, x3 = 0.3019	2.01	–
313.15 K, x2 = 0.05128, x3 = 0.1778	–	49.3
313.15 K, x2 = 0.09755, x3 = 0.3019	–	55.59
323 K, x2 = 0.05128, x3 = 0.1778	2.64	–
323 K, x2 = 0.09755, x3 = 0.3019	2.64	–
333 K, x2 = 0.05128, x3 = 0.1778	3.35	–
333 K, x2 = 0.09755, x3 = 0.3019	3.35	–
343 K, x2 = 0.05128, x3 = 0.1778	4.13	–
343 K, x2 = 0.09755, x3 = 0.3019	4.13	–
353 K, x2 = 0.05128, x3 = 0.1778	4.98	–
353 K, x2 = 0.09755, x3 = 0.3019	4.98	–
363 K, x2 = 0.05128, x3 = 0.1778	5.89	–
363 K, x2 = 0.09755, x3 = 0.3019	5.89	–
373 K, x2 = 0.05128, x3 = 0.1778	6.84	–
373 K, x2 = 0.09755, x3 = 0.3019	6.84	–

CCCC[N+]1(C)CCCCC1.N#C[N-]C#N + O
100 kPa
Settings	viscosity [mPa·s]
298.15 K, x2 = 0.2122	73
328.15 K, x2 = 0.7349	6.6
333.15 K, x2 = 0.6419	8

C[N+](C)(C)CCO.O=S(=O)([N-]S(=O)(=O)C(F)(F)F)C(F)(F)F + OCCCO
101 kPa
Settings	viscosity [mPa·s]
313.15 K, x2 = 0.1272	47.2
313.15 K, x2 = 0.4106	30
313.15 K, x2 = 0.5712	24.9
318.15 K, x2 = 0	46.8
328.15 K, x2 = 0	33.4
333.15 K, x2 = 0.1272	23.9
333.15 K, x2 = 0.2297	20.5
333.15 K, x2 = 0.6946	11.27
338.15 K, x2 = 0.2297	17.8
338.15 K, x2 = 0.6946	9.76
338.15 K, x2 = 0.9474	8.48
343.15 K, x2 = 0.2297	15.62
348.15 K, x2 = 0	19.1
348.15 K, x2 = 0.5712	8.63
353.15 K, x2 = 0.8367	5.98

CC[S+](CC)CCOCCOCC[S+](CC)CC.O=S(=O)([N-]S(=O)(=O)C(F)(F)F)C(F)(F)F.O=S(=O)([N-]S(=O)(=O)C(F)(F)F)C(F)(F)F + CC[n+]1ccn(C)c1.N#C[N-]C#N + O=S(=O)([N-]S(=O)(=O)C(F)(F)F)C(F)(F)F.[Li+]
100 kPa, x1 = 0.1539, x2 = 0.744
Settings	electrical conductivity [S/m]
298 K	0.615
303 K	0.691
313 K	0.953
323 K	1.22
333 K	1.57
343 K	1.93

OCCN(CCO)CCO + CC[n+]1ccn(C)c1.O=S(=O)([O-])C(F)(F)F
100 kPa
Settings	electrical conductivity [S/m]	viscosity [mPa·s]
293.15 K, x1 = 0.084	–	52.9
298.15 K, x1 = 0.426	0.357	65.6
298.15 K, x1 = 0.539	0.232	87.6
298.15 K, x1 = 0.875	0.019	320
298.15 K, x1 = 0.969	0.00321	–
298.15 K, x2 = 0.003	0.000411	–
298.15 K, x2 = 0.006	0.00071	–
298.15 K, x2 = 0.017	0.00188	–
303.15 K, x1 = 0.084	–	36.1
303.15 K, x1 = 0.167	–	37
303.15 K, x1 = 0.641	–	87.1
303.15 K, x2 = 0.006	–	400
313.15 K, x1 = 0.167	1.19	26
313.15 K, x1 = 0.723	0.185	65.8
313.15 K, x2 = 0.003	0.00117	–
313.15 K, x2 = 0.006	0.00204	198.3

CCn1cc[n+](C)c1.[Cl][Al-]([Cl])([Cl])[Cl+][Al-]([Cl])([Cl])[Cl] + CC[n+]1ccn(C)c1.[Cl][Al-]([Cl])([Cl])[Cl]
100 kPa, x1 = 1
Settings	viscosity [mPa·s]
313.15 K	9.79
323.15 K	7.943
343.15 K	5.526
353.15 K	4.721
